# Source: patent publication US11578042B2, “3,5-diamino-6-chloro-N-(N-(4-(4-(2-(hexyl(2,3,4,5,6-pentahydroxyhexyl)amino)ethoxy)phenyl)butyl)carbamimidoyl)pyrazine-2-carboxamide” (Parion Sciences, Inc., priority 2011, dated 2023)
# Several values for one entry are separate records, joined by “and”; a condition that tells them apart may be missing. Identical values can stand only once. Entries after “also recorded” stand apart in the source; their conditions may differ.
# Tests used:
# [1] = test system: mucociliary clearance (MCC); test: Mucociliary clearance (MCC) studies in sheep; type: in vivo; settings: for AUC / Initial Slope (4.0-4.5 h): Table 10, 4 mL, 4 h post-dose
# Protocol: Assay 2. Mucociliary Clearance (MCC) Studies in Sheep
# The animal model that has been used most often to measure changes in MCC is the sheep model.
# In these studies, adult sheep were restrained and nasally intubated with an endotracheal tube. Aerosolized test articles were administered over 10^−15 minutes to sheep. Radiolabeled ^99mTc-sulfur colloid (TSC, 3.1 mg/mL; containing approximately 20 mCi) was then administered at a specified time four or eight hours after test article. The radiolabeled aerosol was administered through the endotracheal tube for about 5 minutes. The sheep were then extubated, and total radioactive counts in the lung were measured every 5 minutes for a 1-hour observation period. The rate of radiolabel clearance from the lung is representative of the MCC rate in the animal. The advantage of this system is that it closely simulates the human lung environment. The model also allows for the collection of simultaneous PK/PD information through plasma and urine sampling over the test period. There are also several techniques to measure the drug concentrations on the airway surface during the MCC measurements. These include the collection of exhaled breath condensates or a filter paper method to obtain ASL via bronchoscopy.
# Test solutions were aerosolized using a Raindrop nebulizer at a flowrate of eight liters per minute and connected to a dosimetry system consisting of a solenoid valve and a source of compressed air (20 psi). […] Using a Raindrop nebulizer, radiolabeled TSC was administered over approximately 3 minutes either 4 or 8 hours after drug treatment to evaluate efficacy/durability. Radioactive counts were measured in a central region in the right lung at 5 min intervals for one hour with a gamma camera.
# [2] = Log D; type: physicochemical
# [3] = Human plasma metabolism; type: in vitro ADME; settings: read-out: Human Plasma Metabolism (t½)
# [4] = Human plasma protein binding; type: in vitro ADME
# [5] = Plasma potassium levels in sheep of the MCC study; settings: at effective / approximate ED50 doses
# Protocol: In these studies, adult sheep were restrained and nasally intubated with an endotracheal tube. Aerosolized test articles were administered over 10^−15 minutes to sheep. Radiolabeled ^99mTc-sulfur colloid (TSC, 3.1 mg/mL; containing approximately 20 mCi) was then administered at a specified time four or eight hours after test article. The radiolabeled aerosol was administered through the endotracheal tube for about 5 minutes. The sheep were then extubated, and total radioactive counts in the lung were measured every 5 minutes for a 1-hour observation period. The rate of radiolabel clearance from the lung is representative of the MCC rate in the animal. […] The model also allows for the collection of simultaneous PK/PD information through plasma and urine sampling over the test period.
# [6] = test system: HBE cells; test: Airway surface liquid drug clearance and metabolism by human airway epithelium; settings: 25 μL of 25 μM on apical surface of HBE, 37° C.
# Description: Assay 3. d. Airway Surface Liquid Drug (ASL) Clearance and Metabolism by Human Airway Epithelium
# [7] = sheep, in vivo, iv
# [8] = test system: CBE cells; test: Airway hydration / surface liquid retention (in vitro CBE model); type: cell-based, canine; settings: 10 μM, 50 μL applied apically, 8 hours
# Protocol: Primary CBE cells are plated onto collagen-coated, porous membranes maintained at an air-liquid interface to assess maintenance of surface liquid volume over time. At the start of the experiment, each 12 mm snapwell insert was removed from the plate containing air-liquid interface culture media, blotted dry, weighed, and 50 μL of vehicle (0.1% DMSO), or ENaC blocker (10 μM in 0.1% DMSO) applied to the apical surface and the mass was recorded. The inserts were immediately returned to a transwell plate (500 μL, Krebs Ringer Bicarbonate (KRB), pH 7.4 in lower chamber) and placed in a 37° C., 5% CO2 incubator. To reduce artifact due to an apical carbohydrate osmotic gradient upon water loss, glucose was not included in the apical buffer. […] The mass of surface liquid was converted to volume in μL. Data are reported as % initial volume (100%=50 μL).
# The duration of sodium transport inhibition was determined indirectly by measuring the buffer retained after a 50 μl volume of experimental buffer was added to the apical surface of CBE cells.
# [9] = sheep MCC model, given as concentration
smiles,measurement,setting,value
"N=C(NCCCCc1ccc(OC[C@H](N)C(N)=O)cc1)NC(=O)c1nc(Cl)c(N)nc1N [Comparative Example 4, (S)-3,5-diamino-6-chloro-N-(N-(4-(4-(2,3-diamino-3-oxopropoxy)phenyl)butyl)carbamimidoyl)pyrazine-2-carboxamide]",AUC,[1]; 11.2 μg/kg,6.9 ± 1.0 % CI × h
same,Initial Slope (4.0-4.5 h),[1]; 11.2 μg/kg,14.5 ± 1.3
same,AUC,[1]; 112 μg/kg,14.1 ± 2.2 % CI × h
same,Initial Slope (4.0-4.5 h),[1]; 112 μg/kg,32.2 ± 7.3
same,approximate ED50 dose,[1]; [9],~3000 µM
same,logD,[2],0.64
same,half-life,[3],37 min
same,fraction unbound,[4],0.24
same,effect on plasma potassium,[5],has elevations of plasma K; also recorded: significant increase in plasma potassium levels
same,% of Apical Mass as Metabolites (2 h),[6],83% and 83.0 ± 3.5%
same,% on Basolateral Side as Metabolites (2 h),[6],94.7 ± 1.0%
N=C(NCCCCc1ccc(OCCN(C[C@H](O)[C@@H](O)[C@H](O)[C@H](O)CO)C[C@H](O)[C@@H](O)[C@H](O)[C@H](O)CO)cc1)NC(=O)c1nc(Cl)c(N)nc1N [Comparative Example 1],ED50,"[1]; Ovis aries, sheep MCC at 8 hrs, read-out: Approximate ED50",~0.24 µmol/kg
same,"AUC, % of maximal effect","[1]; Table 7, 3000 μM, 8 hrs",(47%)
same,"AUC, change from vehicle","[1]; Table 7, 3000 μM, 8 hrs",2.9 % CI*h
same,"Max Clearance, % of maximal effect","[1]; Table 7, 3000 μM, 8 hrs",(31%)
same,"Max Clearance, change from vehicle","[1]; Table 7, 3000 μM, 8 hrs",4%
same,"Slope (8-8.5 h), % of maximal effect","[1]; Table 7, 3000 μM, 8 hrs",(60%)
same,"Slope (8-8.5 h), change from vehicle","[1]; Table 7, 3000 μM, 8 hrs",6.1
same,Approximate ED50,"[1]; sheep MCC at 8 hrs, listed as Comp. Ex. 1",~240 nmol/kg
same,ED50 (AUC=47%),[1]; [9],approximately 3000 μM
same,approximate ED50 dose,[1]; [9],~3000 µM
same,dose recovered in urine,[7],43%
same,effect on plasma potassium,[5],causes a rise in plasma potassium
"N=C(N)NC(=O)c1nc(Cl)c(N)nc1N [Amiloride, amiloride]",surface liquid retained (% initial volume),[8],25±19.2%
